Test results taken from US11873291B2, “Quinoline cGAS antagonist compounds” (ImmuneSensor Therapeutics, Inc., priority 2020, dated 2024).
pIC50: −log10 of the molar value. Like-named read-outs stand apart in the source and are kept apart here.

Experiments:
[1] = biological target: T1, recombinant human cGAS (aa147-522) (Homo sapiens, UniProt Q8N884); assay: In vitro inhibition assay of cGAS activity (ATP consumption, KinaseGlo Max); type: biochemical
T1 construct: recombinant human cGAS (aa147-522); His6-SUMO (cleaved yes); made in house; host or cells: E. coli BL21/pLys
Method in brief: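 De-tagged recombinant human cGAS (aa147-522, 1.5 μg/mL) was incubated 20 min at 37 °C with herring testis DNA, 6.6 μM ATP and 0.1 mM GTP in Tris pH 7.5/MgCl2 buffer plus serial compound dilutions. Remaining ATP was read by KinaseGlo Max luminescence, and IC50 was fitted from % ATP consumption versus log concentration.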

[2] = test system: cGAS activity in Reporter THP1 cell line; assay: Cellular assay to measure cGAS activity: ISRE-Gaussia luciferase reporter THP1 cells transfected with ISD; type: cell-based; conditions: Homo sapiens
Protocol: Cellular assay to measure cGAS activity: Reporter THP1 cell line harboring a gene encoding Gaussia Luciferase under the control of 5 tandem repeats of interferon-stimulated response elements (ISRE) fused to an ISG54 minimal promoter was used to test inhibition of cGAS activity by synthetic compounds in human cells. These cells were plated on 96-well plates at 0.3×10^6/well and incubated with serial dilutions of compounds or DMSO for 5 min, followed by transfection of 2 μg/mL of ISD (Interferon Stimulatory DNA, a 45 bp DNA oligo) or mock transfected using lipofectamine 2000 (Life Technology) method, according to manufacturer's instructions. 16 hours later, 15 μL of the media from each well was transferred to a new plate, 50 μL of solution containing 50 mM Hepes-NaOH, pH 6.5, 50 mM NaCl, 10 mM EDTA, 1 μM of coelenterazine was added to each well and luminescence was measured immediately. Fold increase in luminescence compared to mock transfection was plotted against concentrations of each compound, and IC50 is calculated using Graphpad. To evaluate the specificity of a compound, the same procedure was performed except that cells were transfected with 2 μg/mL poly(I:C) or infected with Sendai Virus (SeV) at 50 Unit/mL, which are known to activate the RIG-I-MAVS pathway. A specific inhibitory compound should inhibit interferon induction by DNA but have minimal effect on poly(I:C) or Sendai virus induced interferon reporter gene expression.
The letter codes for cGAS IC50 include: A (<2 μM); B (2-10 μM); C (>10 μM).

[3] = Table 3, read-out: cGAS Inhibition Results IC50
[4] = THP-1, Table 4, Gaussia luciferase
[5] = THP-1, untitled table after Table 4 (continuation)
[6] = Table 2, read-out: cGAS Inhibition Results IC50

T1 sequence (Q8N884 147-522): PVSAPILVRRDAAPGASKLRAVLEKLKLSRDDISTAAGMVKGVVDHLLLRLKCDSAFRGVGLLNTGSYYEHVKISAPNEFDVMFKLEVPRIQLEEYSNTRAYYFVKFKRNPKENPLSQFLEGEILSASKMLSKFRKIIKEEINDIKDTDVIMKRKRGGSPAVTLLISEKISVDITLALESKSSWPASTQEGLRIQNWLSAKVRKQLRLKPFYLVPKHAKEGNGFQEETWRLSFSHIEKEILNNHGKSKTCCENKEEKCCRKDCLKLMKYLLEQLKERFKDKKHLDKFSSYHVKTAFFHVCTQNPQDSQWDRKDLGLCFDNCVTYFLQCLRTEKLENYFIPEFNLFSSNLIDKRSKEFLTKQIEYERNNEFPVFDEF

| SMILES | pIC50 [1, 3] | pIC50 [2, 4] | pIC50 [2, 5] | pIC50 [1, 6] |
| --- | --- | --- | --- | --- |
| COC(=O)CCOC[C@@H]1CN(c2cc(-c3cn[nH]c3)c3ccc(Cl)c(Cl)c3n2)CCO1 [I-752] | > 5.70 | < 5.00 |  |  |
| C[C@H]1CCN(c2cc(-n3ccnc3)c3ccc(Cl)c(Cl)c3n2)[C@@H]1COCCC(=O)O [I-792] | > 5.70 |  | > 5.70 |  |
| COC(=O)COCC[C@@H]1CCCN1c1cc(-n2ccnc2)c2ccc(Cl)c(Cl)c2n1 [I-669] | 4.52 to 5.70 | > 5.70 |  |  |
| CN(CCCOCCC(=O)O)c1cc(-n2ccnc2)c2ccc(Cl)c(Cl)c2n1 [I-692] | > 5.70 | > 5.70 |  |  |
| O=C(O)c1cnn(CCNc2cc(-n3ccnc3)c3ccc(Cl)c(Cl)c3n2)c1 [I-889] | > 5.70 |  | < 5.00 |  |
| O=C(O)CCOC[C@H]1CCCN1c1cc(-n2ccnc2)c2ccc(Cl)c(Cl)c2n1 [I-674] | > 5.70 | 5.00 to 5.70 |  |  |
| O=C(O)CCOC[C@@H]1C[C@H](F)CN1c1cc(-n2ccnc2)c2ccc(Cl)c(Cl)c2n1 [I-705] | > 5.70 | > 5.70 |  |  |
| C[C@H]1CC[C@@H](C(=O)O)N1c1cc(-n2ccnc2)c2ccc(Cl)c(Cl)c2n1 [I-507] | > 5.70 | 5.00 to 5.70 |  |  |
| O=C1C[C@@H]2[C@@H](CCN2c2cc(-n3ccnc3)c3ccc(Cl)c(Cl)c3n2)O1 [I-774, (3aR,6aR)-4-(7,8-dichloro-4-(1H-imidazol-1-yl)quinolin-2-yl)hexahydro-2H-furo[3,2-b]pyrrol-2-one] | > 5.70 |  | 5.00 to 5.70 |  |
| COC(=O)[C@@H]1[C@@H](O)CCN1c1cc(-n2ccnc2)c2ccc(Cl)c(Br)c2n1 [I-872] | 4.52 to 5.70 |  | > 5.70 |  |
| O=C(O)CCOC[C@@H]1CCCN1c1cc(-n2ccnc2)c2cc(Cl)c(Cl)c(Cl)c2n1 [I-876] | > 5.70 |  | > 5.70 |  |
| CC(C)(C)O[C@@H]1C[C@@H](COCCC(=O)O)N(c2cc(-n3ccnc3)c3ccc(Cl)c(Cl)c3n2)C1 [I-796] | > 5.70 |  | > 5.70 |  |
| O=C(O)COC[C@@H]1CN(c2cc(-n3ccnc3)c3ccc(Cl)c(Cl)c3n2)CCO1 [I-742] | > 5.70 | < 5.00 |  |  |
| O=C(O)[C@@H]1C[C@@H]2C[C@@H]2N1c1cc(-n2ccnc2)c2ccc(Cl)c(Cl)c2n1 [I-469] | > 5.70 | > 5.70 |  |  |
| O=C(O)CCOC[C@H]1CCCN(c2cc(-n3ccnc3)c3ccc(Cl)c(Cl)c3n2)C1 [I-745] | > 5.70 | > 5.70 |  |  |
| O=C(O)CCOC[C@@H]1CCN(c2cc(-n3ccnc3)c3ccc(Cl)c(Cl)c3n2)C1 [I-773] | > 5.70 |  | > 5.70 |  |
| COC(=O)CC(C)OC[C@@H]1CCCN1c1cc(-n2ccnc2)c2ccc(Cl)c(Cl)c2n1 (stereo partly drawn) [I-718] | 4.52 to 5.70 | > 5.70 |  |  |
| COC(=O)[C@@H]1[C@@H](F)CCN1c1cc(-n2ccnc2)c2ccc(Cl)c(Cl)c2n1 [I-649, methyl (2R,3S)-1-(7,8-dichloro-4-(1H-imidazol-1-yl)quinolin-2-yl)-3-fluoropyrrolidine-2-carboxylate] | 4.52 to 5.70 | 5.00 to 5.70 |  |  |
| OC[C@@H]1CCCN1c1cc(-n2ccnc2)c2ccc(Cl)c(Cl)c2n1 [I-139] |  | 5.00 to 5.70 |  | > 5.70 |
| C[C@@H]1CN(c2cc(-n3ccnc3)c3ccc(Cl)c(Cl)c3n2)[C@H](C(=O)O)[C@H]1O [I-778] | 4.52 to 5.70 |  | < 5.00 |  |
| O=C(O)COCC[C@@H]1CCCN1c1cc(-n2ccnc2)c2ccc(Cl)c(Cl)c2n1 [I-668] | > 5.70 | > 5.70 |  |  |
| O=C(O)C[C@H]1CCCN1c1cc(-n2ccnc2)c2ccc(Cl)c(Cl)c2n1 [I-776] | > 5.70 |  | < 5.00 |  |
| NS(=O)(=O)CCNc1cc(-n2ccnc2)c2ccc(Cl)c(Cl)c2n1 [I-200] |  | > 5.70 |  | > 5.70 |

| SMILES | pIC50 [1, 3] | pIC50 [2, 4] | pIC50 [2, 5] | pIC50 [1, 6] |
| --- | --- | --- | --- | --- |
| O=C(O)COC[C@@H]1CCCN1c1cc(-n2ccnc2)c2ccc(Cl)c(Cl)c2n1 [I-666, (S)-2-((1-(7,8-dichloro-4-(1H-imidazol-1-yl)quinolin-2-yl)pyrrolidin-2-yl)methoxy)acetic acid] | > 5.70 | > 5.70 |  |  |
| O=C(O)COCCC[C@@H]1CCCN1c1cc(-n2ccnc2)c2ccc(Cl)c(Cl)c2n1 [I-820] | > 5.70 |  | > 5.70 |  |
| CN(Cc1cccc(CC(=O)O)c1)c1cc(-n2ccnc2)c2ccc(Cl)c(Cl)c2n1 [I-845] | > 5.70 |  | > 5.70 |  |
| O=C(O)CCOC[C@@H]1C[C@H](O)CN1c1cc(-n2ccnc2)c2ccc(Cl)c(Cl)c2n1 [I-702] | > 5.70 | 5.00 to 5.70 |  |  |
| O=C(O)CCOCc1ccc(Cl)c(-c2cc(-n3ccnc3)c3ccc(Cl)c(Cl)c3n2)c1 [I-878] | > 5.70 |  | > 5.70 |  |
| O=C(O)CCOCCNc1cc(-n2ccnc2)c2ccc(Cl)c(Cl)c2n1 [I-693] | > 5.70 | < 5.00 |  |  |
| O=C(O)CCOCc1cccc(-c2cc(-n3ccnc3)c3ccc(Cl)c(Cl)c3n2)c1 [I-840, 3-((3-(7,8-dichloro-4-(1H-imidazol-1-yl)quinolin-2-yl)benzyl)oxy)propanoic acid] | > 5.70 |  | > 5.70 |  |
| O=C(O)CCCCNc1cc(-n2ccnc2)c2ccc(Cl)c(Cl)c2n1 [I-835] | > 5.70 |  | 5.00 to 5.70 |  |
| CC(C)N(CCOCCC(=O)O)c1cc(-n2ccnc2)c2ccc(Cl)c(Cl)c2n1 [I-833] | > 5.70 |  | > 5.70 |  |
| O=C(O)CCc1cccc(Nc2cc(-n3ccnc3)c3ccc(Cl)c(Cl)c3n2)c1 [I-883] | > 5.70 |  | 5.00 to 5.70 |  |
| O=C(O)CCOCc1ccccc1-c1cc(-n2ccnc2)c2ccc(Cl)c(Cl)c2n1 [I-841] | > 5.70 |  | < 5.00 |  |
| O=C(O)CCOC[C@@H]1CCCN1c1cc(-n2ccnc2)c2cc(Br)c(Cl)c(Cl)c2n1 [I-857] | > 5.70 |  | > 5.70 |  |
| O=C(O)c1cnn(C[C@@H]2CCCN2c2cc(-n3ccnc3)c3ccc(Cl)c(Cl)c3n2)c1 [I-728] | > 5.70 | 5.00 to 5.70 |  |  |
| NS(=O)(=O)CC1CCN(c2cc(-n3ccnc3)c3ccc(Cl)c(Cl)c3n2)C1 (stereo not drawn) [I-149] |  | < 5.00 |  | > 5.70 |
| O=C(O)CCOC[C@@H]1CC2(CC2)CN1c1cc(-n2ccnc2)c2ccc(Cl)c(Cl)c2n1 [I-709] | > 5.70 | > 5.70 |  |  |
| O=C(O)CCOCC1CCCCN(c2cc(-n3ccnc3)c3ccc(Cl)c(Cl)c3n2)C1 (stereo not drawn) [I-866] | > 5.70 |  | 5.00 to 5.70 |  |
| O=C(O)c1noc(CCNc2cc(-n3ccnc3)c3ccc(Cl)c(Cl)c3n2)n1 [I-882] | > 5.70 |  | < 5.00 |  |
| C[C@H]1CN(c2cc(-n3ccnc3)c3ccc(Cl)c(Cl)c3n2)C[C@@H]1COCCC(=O)O [I-814] | > 5.70 |  | > 5.70 |  |
| O=C(O)C1CC[C@H](c2ccccc2)N1c1cc(-n2ccnc2)c2ccc(Cl)c(Cl)c2n1 (stereo partly drawn) [I-487] |  | 5.00 to 5.70 |  |  |
| O=C(O)CCOC[C@@H]1[C@@H]2CC2CN1c1cc(-n2ccnc2)c2ccc(Cl)c(Cl)c2n1 (stereo in doubt) [I-809] |  |  | > 5.70 |  |
| CN(CCNC(=O)C1CCC(C(=O)O)C1)c1cc(-n2ccnc2)c2ccc(Cl)c(Cl)c2n1 (stereo not drawn) [I-615] | 4.52 to 5.70 |  |  |  |
| O=C(C[C@@H]1CCCN1c1cc(-n2ccnc2)c2ccc(Cl)c(Cl)c2n1)N[C@@H](C(=O)O)c1ccccc1 [I-388] |  |  |  | 4.52 to 5.70 |
| O=C(O)CO[C@@H]1CCN(c2cc(-n3ccnc3)c3ccc(Cl)c(Cl)c3n2)[C@@H]1C(=O)O [I-561] | > 5.70 |  |  |  |
